# Experimental data from patent US11559575B2, “Multi-epitopic peptide compounds and vaccines against leishmaniasis” (INSTITUT DE RECHERCHE POUR LE DEVELOPPEMENT, priority 2018, dated 2023).
# Entries after “also recorded” stand apart in the source; their conditions may differ.
# System: HLA alleles of class II
# Assay: Affinity of epitopes for HLA alleles of class II
# Assay type: binding, human
# Details: H2B-II core epitopes, Table 1
# Excerpt: The multiepitopic peptide compounds (24 to 40-mer), having a high affinity with a maximized number of HLA molecules of class I and of class II, such as the affinities for the alleles HLA of class I and HLA of class II of the epitopes in the peptides of the sequences SEQ ID NO: 22, 23, 65, 66, 69, 73, 77, 96, 97, 137, 138, and 157, 185, have a high immunoprevalent potential corresponding to an optimal vaccine coverage, in particular for the populations concerned. The degree of coverage of the peptide compounds of the invention show a very high added value compared with the peptides of the prior art.
row,Sequence,Affinity HLA alleles of class II
1,WNVYVGRSL (Leishmania major) [SEQ ID NO: 53],"HLA-DRB1*04:05,; also recorded: HLA-DRB1*07:01,; also recorded: HLA-DRB1*09:01,; also recorded: HLA-DRB1*15:01,; also recorded: HLA-DRB5*01:01"
2,LKAINAQMS (Leishmania major) [SEQ ID NO: 45],"HLA-DRB1*04:05,; also recorded: HLA-DRB1*07:01,; also recorded: HLA-DRB1*08:02,; also recorded: HLA-DRB1*09:01,; also recorded: HLA-DRB1*11:01,; also recorded: HLA-DRB4*01:01,; also recorded: HLA-DRB5*01:01"
3,GRSLKAINA (Leishmania major) [SEQ ID NO: 43],HLA-DRB1*01:01

# Same assay, conditions: H2B-II peptides, Table 1
row,Sequence,Concatenation affinity for the HLA alleles of class II
1,RSWNVYVGRSLKAIN (Leishmania major) [SEQ ID NO: 28],"HLA-DRB5*01:01, HLA-DRB1*01:01, HLA-DRB1*03:01,; also recorded: HLA-DRB1*04:01, HLA-DRB1*11:01, HLA-DRB1*13:02,; also recorded: HLA-DRB1*04:05, HLA-DRB1*07:01, HLA-DRB1*09:01,; also recorded: HLA-DRB1*15:01, HLA-DPA1*02:01/DPB1*01:01,; also recorded: HLA-DRB1*08:02"
2,RKPKRSWNVYVGRSL (Leishmania major) [SEQ ID NO: 24],"HLA-DRB1*13:02, HLA-DRB1*01:01, HLA-DRB1*07:01,; also recorded: HLA-DRB1*09:01, HLA-DRB1*15:01"
3,SLKAINAQMSMSHRT (Leishmania major) [SEQ ID NO: 37],"HLA-DRB1*07:01, HLA-DRB1*04:01, HLA-DRB1*04:05,; also recorded: HLA-DRB1*09:01, HLA-DRB1*11:01, HLA-DRB1*15:01,; also recorded: HLA-DRB5*01:01, HLA-DRB1*01:01, HLA-DRB1*08:02,; also recorded: HLA-DRB4*01:01,"
4,SWNVYVGRSLKAINA (Leishmania major) [SEQ ID NO: 29],"HLA-DRB5*01:01, HLA-DRB1*04:05, HLA-DPA1*03:01/; also recorded: DPB1*04:02, HLA-DRB1*01:01, HLA-DRB1*03:01,; also recorded: HLA-DRB1*04:01, HLA-DRB1*11:01, HLA-DRB1*13:02,; also recorded: HLA-DRB1*07:01, HLA-DRB1*09:01, HLA-DRB1*15:01,; also recorded: HLA-DPA1*02:01/DPB1*01:01, HLA-DRB1*08:02"

# Same assay, conditions: LmLRAB-IIA core, Table 2
row,Sequence,Concatenation affinity for HLA alleles of class II
1,VGRHLSIVA (Leishmania major) [SEQ ID NO: 91],HLA-DRB1*15:01

# Same assay, conditions: LmLRAB-IIA peptides, Table 2
row,Sequence,Concatenation affinity for HLA alleles of class II
1,RLHSVVGRHLSIVAD (Leishmania major) [SEQ ID NO: 80],"HLA-DRB1*07:01,; also recorded: HLA-DRB1*15:01,; also recorded: HLA-DRB5*01:01,; also recorded: HLA-DRB1*11:01,; also recorded: HLA-DRB1*09:01,"
2,GRHLSIVADHMPHLD (Leishmania major) [SEQ ID NO: 86],"HLA-DRB3*01:01,; also recorded: HLA-DRB1*03:01,; also recorded: HLA-DRB1*13:02,"
3,LHSVVGRHLSIVADH (Leishmania major) [SEQ ID NO: 81],"HLA-DRB1*07:01,; also recorded: HLA-DRB1*15:01,; also recorded: HLA-DRB5*01:01,; also recorded: HLA-DRB1*11:01,; also recorded: HLA-DRB1*09:01,"
4,VVGRHLSIVADHMPH (Leishmania major) [SEQ ID NO: 84],HLA-DRB1*01:01
5,GRLHSVVGRHLSIVA (Leishmania major) [SEQ ID NO: 79],"HLA-DRB1*07:01,; also recorded: HLA-DRB5*01:01,; also recorded: HLA-DRB1*15:01,; also recorded: HLA-DRB1*11:01,; also recorded: HLA-DRB1*09:01,; also recorded: HLA-DRB4*01:01"
6,HSVVGRHLSIVADHM (Leishmania major) [SEQ ID NO: 82],HLA-DRB1*15:01

# Same assay, conditions: LmlRAB-IIB core, Table 2
row,Sequence,Concatenation affinity for HLA alleles of class II
1,LFTDVHYSE (Leishmania major) [SEQ ID NO: 124],"HLA-DRB1*03:01,; also recorded: HLA-DRB3*01:01,; also recorded: DPB1*04:01,; also recorded: HLA-DPA1*02:01/; also recorded: HLA-DPA1*03:01/; also recorded: DPB1*04:02"
2,IVTSRKVQE (Leishmania major) [SEQ ID NO: 123],"HLA-DRB1*03:01,; also recorded: HLA-DRB1*08:02,; also recorded: HLA-DRB1*11:01"
3,AIVTSRKVQ (Leishmania major) [SEQ ID NO: 119],HLA-DRB1*11:01
4,HYSEVSAKT (Leishmania major) [SEQ ID NO: 122],HLA-DRB1*04:01

# Same assay, conditions: LmlRAB-IIB peptides, Table 2
row,Sequence,Concatenation affinity for HLA alleles of class II
1,ENAIVTSRKVQEEVF (Leishmania major) [SEQ ID NO: 101],"HLA-DRB1*03:01, HLA-DRB1*07:01,; also recorded: HLA-DRB1*08:02, HLA-DRB1*11:01,; also recorded: HLA-DRB1*12:01"
2,FDLFTDVHYSEVSAK (Leishmania major) [SEQ ID NO: 103],"HLA-DRB1*01:01, HLA-DRB1*03:01,; also recorded: HLA-DRB1*07:01, HLA-DRB1*09:01,; also recorded: HLA-DPA1*03:01/DPB1*04:02,; also recorded: HLA-DPA1*02:01/HLA-DPB1*14:01"
3,EEVFDLFTDVHYSEV (Leishmania major) [SEQ ID NO: 100],"HLA-DRB1*01:01, HLA-DRB1*03:01,; also recorded: HLA-DRB1*04:01, HLA-DRB1*04:05,; also recorded: HLA-DRB1*07:01, HLA-DRB1*15:01,; also recorded: HLA-DRB1*12:01, HLA-DRB3*01:01,; also recorded: HLA-DPA1*01:03/DPB1*02:01,; also recorded: HLA-DPA1*01/DPB1*04:01, HLA-DPA1*02:01/; also recorded: HLA-DPB1*14:01"
4,VQEEVFDLFTDVHYS (Leishmania major) [SEQ ID NO: 117],"HLA-DRB1*03:01, HLA-DRB1*04:01,; also recorded: HLA-DRB1*04:05, HLA-DRB1*07:01,; also recorded: HLA-DRB1*15:01, HLA-DPA1*01:03/DPB1*02:01,; also recorded: HLA-DPA1*02:01/DPB1*05:01,; also recorded: HLA-DPA1*03:01/DPB1*04:02"
5,RKVQEEVFDLFTDVH (Leishmania major) [SEQ ID NO: 111],"HLA-DRB1*03:01, HLA-DRB1*04:01,; also recorded: HLA-DPA1*02:01/DPB1*05:01,; also recorded: HLA-DPA1*03:01/DPB1*04:02"
6,SRKVQEEVFDLFTDV (Leishmania major) [SEQ ID NO: 114],"HLA-DRB1*03:01, HLA-DPA1*01:03/DPB1*02:01,; also recorded: HLA-DPA1*02:01/DPB1*05:01,; also recorded: HLA-DPA1*03:01/DPB1*04:02"
7,SENAIVTSRKVQEEV (Leishmania major) [SEQ ID NO: 113],"HLA-DRB1*03:01, HLA-DRB1*07:01,; also recorded: HLA-DRB1*08:02, HLA-DRB1*11:01,; also recorded: HLA-DRB1*12:01"
8,DLFTDVHYSEVSAKT (Leishmania major) [SEQ ID NO: 99],"HLA-DRB1*04:01, HLA-DRB7*01:01,; also recorded: HLA-DPA1*01:03/DPB1*02:01,; also recorded: HLA-DPA1*01/DPB1*04:01, HLA-DPA1*02:01/; also recorded: HLA-DPB1*14:01"
9,LFTDVHYSEVSAKTK (Leishmania major) [SEQ ID NO: 108],"HLA-DRB1*01:01, HLA-DRB1*04:01,; also recorded: HLA-DRB1*07:01, HLA-DRB1*09:01,; also recorded: HLA-DRB5*01:01, HLA-DPA1*01:03/DPB1*02:01,; also recorded: HLA-DPA1*01/DPB1*04:01,; also recorded: HLA-DPA1*02:01/HLA-DPB1*14:01"
10,GRSENAIVTSRKVQE (Leishmania major) [SEQ ID NO: 104],"HLA-DRB1*01:01, HLA-DRB1*03:01,; also recorded: HLA-DRB1*07:01, HLA-DRB1*11:01,; also recorded: HLA-DRB1*12:01, HLA-DRB5*01:01"
11,RSENAIVTSRKVQEE (Leishmania major) [SEQ ID NO: 112],"HLA-DRB1*01:01, HLA-DRB1*03:01,; also recorded: HLA-DRB1*07:01, HLA-DRB1*11:01,; also recorded: HLA-DRB5*01:01"

# Same assay, conditions: PSA KC-2.6 core, Table 3
row,Sequence,Concatenation affinity for HLA alleles of class II
1,YFLTDEKTS (listed as Leishmania infantum) [SEQ ID NO: 150],"HLA-DRB1*04:01,; also recorded: HLA-DRB1*11:01"
2,GYFLTDEKT (listed as Leishmania infantum) [SEQ ID NO: 147],"HLA-DRB1*04:01,; also recorded: HLA-DPA1*02:01/; also recorded: DPB1*01:01"

# Same assay, conditions: PSA KC-2.6 peptides, Table 3
row,Sequence,Concatenation affinity for HLA alleles of class II
1,RSGEGYFLTDEKTSL (listed as Leishmania infantum) [SEQ ID NO: 143],"HLA-DRB1*01:01, HLA-DRB1*03:01,; also recorded: HLA-DRB1*04:01, HLA-DRB3*01:01,; also recorded: HLA-DPA1*03:01/DPB1*14:01"
2,SGEGYFLTDEKTSLV (listed as Leishmania infantum) [SEQ ID NO: 144],"HLA-DRB1*01:01, HLA-DRB1*03:01,; also recorded: HLA-DRB1*04:01, HLA-DRB1*04:05,; also recorded: HLA-DRB1*07:01, HLA-DRB1*11:01,; also recorded: HLA-DRB3*01:01, HLA-DRB3*02:02,; also recorded: HLA-DPA1*02:01/DPB1*01:01"
3,FLTDEKTSLVYGDGG (listed as Leishmania infantum) [SEQ ID NO: 140],"HLA-DRB1*03:01, HLA-DRB3*01:01"
4,EGYFLTDEKTSLVYG (listed as Leishmania infantum) [SEQ ID NO: 139],"HLA-DRB1*12:01, HLA-DRB1*13:02,; also recorded: HLA-DRB3*01:01, HLA-DRB3*02:02,; also recorded: HLA-DPA1*03:01/DPB1*04:02; also recorded: HLA-DRB1*01:01, HLA-DRB1*03:01,; also recorded: HLA-DRB1*04:01, HLA-DRB1*04:05,; also recorded: HLA-DRB1*07:01, HLA-DRB1*11:01,"
5,GEGYFLTDEKTSLVY (listed as Leishmania infantum) [SEQ ID NO: 141],"HLA-DRB1*01:01, HLA-DRB1*03:01,; also recorded: HLA-DRB1*04:01, HLA-DRB1*04:05,; also recorded: HLA-DRB1*07:01, HLA-DRB1*11:01,; also recorded: HLA-DRB1*12:01, HLA-DRB1*13:02,; also recorded: HLA-DRB3*01:01, HLA-DRB3*02:02,; also recorded: HLA-DPA1*03:01/DPB1*04:02,; also recorded: HLA-DPA1*02:01/HDPB1*14:01"

# Same assay, conditions: PSA KC-2.7 core, Table 3
row,Sequence,Concatenation affinity for HLA alleles of class II
1,FSNMGLLLS (listed as Leishmania infantum) [SEQ ID NO: 172],HLA-DRB1*11:01
2,YSHSMIRDL (listed as Leishmania infantum) [SEQ ID NO: 178],"HLA-DRB1*04:05,; also recorded: HLA-DRB1*07:01,; also recorded: HLA-DRB1*09:01,; also recorded: HLA-DPA1*02:01/; also recorded: DPB1*01:01"

# Same assay, conditions: PSA KC-2.7 peptides, Table 3
row,Sequence,Concatenation affinity for HLA alleles of class II
1,PSGSDYSHSMIRDLD (listed as Leishmania infantum) [SEQ ID NO: 164],"HLA-DRB1*04:05, HLA-DRB1*07:01,; also recorded: HLA-DRB1*09:01, HLA-DRB5*01:01,; also recorded: LA-DPA1*02:01/DPB1*01:01"
